According to patent publication US11510931B2, “Compositions and methods for treating ophthalmic conditions” (MEDICON PHARMACEUTICALS, INC., priority 2016, dated 2022):

Experiments:
VEGF-A = assay: Secreted VEGF in culture medium of human ovarian cancer cells (ELISA); assay type: cell-based; conditions: PS 1.0×IC50, 24 h
Protocol: First, the effect of PS on VEGF production was evaluated by cultured human cancer ovarian cells, known to secrete VEGF to recruit vascular endothelial cells for angiogenesis. Therefore, VEGF is one of the most significant and direct targets in an anti-angiogenesis strategy. The experiments discovered that VEGF levels are reduced in ovarian cancer cells by PS. Secreted VEGF was assayed in the culture medium by ELISA.

JNK and Erk1/2 = assay: MAPK activation by phosphorylation in human conjunctival cells (immunoblot); assay type: cell-based; conditions: 3.5 h, FIG. 6B
Protocol: FIGS. 6A and 6B illustrate that PS suppresses the activation of NF-κB and MAPKs. In FIG. 6A, NF-κB activation was determined by EMSA in cultured human conjunctival cells stimulated with TNFα (top) and in the ILG of rabbits with Con A-induced DED and treated for one week with either vehicle or PS (bottom). In FIG. 6B, immunoblots detecting the activation of MAPKs by phosphorylation in cultured human conjunctival cells treated with PS at the indicated concentrations for 3.5 h. Loading control: β-actin.
Our conjunctiva cells express only the JNK and Erk1/2 pathways.

VEGF = VEGF immunohistochemistry in inferior lacrimal gland of rabbits with DED; assay type: in vivo, rabbit; conditions: PS 3.5% eye drops three times per day, 1 week, vs vehicle
Protocol: Rabbits with ConA-induced dry eye disease (n=8 eyes/group) were treated with PS 3.5% eye drops three times per day or vehicle for 1 week. […] Immunohistochemistry for VEGF was performed on tissue sections and VEGF positive vessels were counted. PS reduced the number of VEGF positive cells by 73% bringing it to nearly normal values (the level in naïve rabbits)

MMP-1 (collagenase I) = biological target: T1, MMP-1 (collagenase I) (Homo sapiens, UniProt P03956); assay: In vitro collagenase activity assay with purified MMP-1; assay type: biochemical; conditions: purified MMP-1 (collagenase I)
T1 sequence (P03956 100-469): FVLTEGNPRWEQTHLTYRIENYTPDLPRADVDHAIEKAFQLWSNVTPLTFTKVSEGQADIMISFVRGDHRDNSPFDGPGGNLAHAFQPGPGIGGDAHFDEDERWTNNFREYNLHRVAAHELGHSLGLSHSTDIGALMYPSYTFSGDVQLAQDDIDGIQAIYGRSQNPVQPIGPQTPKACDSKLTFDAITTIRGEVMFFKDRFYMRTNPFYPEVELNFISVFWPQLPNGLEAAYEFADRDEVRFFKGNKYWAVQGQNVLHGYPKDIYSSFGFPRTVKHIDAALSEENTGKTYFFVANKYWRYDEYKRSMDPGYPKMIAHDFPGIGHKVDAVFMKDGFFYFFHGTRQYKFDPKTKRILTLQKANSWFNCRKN
Protocol: (§1) In an in vitro assay with purified MMP-1 (collagenase I) as […] it was shown that PS inhibited collagenase activity with an IC50 of <100 nM. In cultured human conjunctiva cells, PS suppressed MMP-1 by 75%-86%. In the lacrimal glands of rabbits with DED treated with PS eye drops, PS suppressed MMP-9 levels by 27% compared to vehicle treated rabbits (2.20±0.24 vs. 1.66±0.20 ng/mg protein; p<0.05; mean±SEM).

NF-κB [1] = assay: NF-κB activation in the ILG of rabbits with DED; assay type: in vivo, rabbit; conditions: 1 week of treatment, vs vehicle
Protocol: (§2) Human conjunctival cells were treated with various concentrations of PS. Five hours later, TNF-α was added to the culture medium to a final concentration of 10 ng/ml and the status of NF-κB activation was determined by EMSA 1 h later. […] Similarly, after 1 week of treatment, PS suppressed NF-κB activation in the ILG of rabbits with DED compared to those treated with vehicle.

IL-8 [2] = assay: IL-8 levels in the ILG of rabbits with DED (ELISA); assay type: in vivo, rabbit
Protocol: (§3) Using this model, we compared the effect of PS to that of cyclosporine and lifitegrast. Rabbits were treated for 6 days with PS as above or cyclosporine 0.05% or lifitegrast 5% eye drops 3×/day. In addition to determining TUBT, osmolarity and STT, we measured the levels of IL-8 and IL-1β in the ILGs of the rabbits harvested at euthanasia. Both of these cytokines are significant mediators of inflammation in DED. As shown in the table below, PS had statistically significant effects on TBUT, tear osmolarity, IL-8 and IL-1β levels. […] Of note, lifitegrast suppressed STT below the levels of the vehicle group and this suppression was statistically significant, but in the opposite direction for a useful therapeutic effect.
(§4) Moreover, for all three cytokines PS suppressed their unstimulated levels as well (62%, 84% and 4.7% reduction, respectively). In addition, PS suppressed the levels of IL-8 by 64% and IL-1β (not expressed by the cultured cells) by 61% in the ILG of rabbits treated with PS for 1 week compared to controls treated with vehicle (FIG. 8B). TGF-β was not detectable by the method in ILG homogenates. All these changes were statistically significant (p<0.001-0.04, except for the unstimulated TGF-β).

IL-8 [3] = assay: IL-8 in culture medium of human conjunctival cells (ELISA); assay type: cell-based
Protocol: Culture media were harvested 24 h later and the levels of TGF-β, IL-6 and IL-8 were determined by ELISA. Of note, the levels of IL-1β were below the limit of detection.

IL-1β = IL-1β levels in the ILG of rabbits with DED (ELISA); assay type: in vivo, rabbit
Protocol: as §3, §4

MMP-9 = MMP-9 levels in lacrimal gland and aqueous humor of rabbits with DED (ELISA); assay type: in vivo, rabbit
Protocol: as §1

NF-κB [4] = assay: NF-κB activation by EMSA in TNF-α-stimulated human conjunctival cells; assay type: cell-based; conditions: PS 5 h then TNF-α 10 ng/ml 1 h, FIG. 6A
Source text: The Mechanism of Action of PS in Dry Eye. Tissue culture, animal and human studies have established inflammation as the core mechanism of DED^8. To determine the mechanism of action of PS in DED the response to PS of several factors known to play an important role in the inflammation associated with DED was explored. They include NF-κB; the cytokines TGF-β, IL-1 β, IL-6 and IL-8; the collagenases MMP-1 and MMP-9; and PGE2. In these studies we used human conjunctival epithelial cells, the Wong-Kilbourne derivative of Chang conjunctival cells (clone 1 to 5c-41 American Type Culture Collection (Manassas, Va.) certified cell line, 20.2).
as §2

[5] = Con A DED rabbits, 6 days, eye drops 3×/day, PS nanoparticles, cyclosporine 0.05%, lifitegrast 5%, mean ± SEM
[6] = rabbits treated with PS for 1 week vs vehicle

Q: Which results are given for CCOP(=O)(OCC)OCCCCOC(=O)CC1=C(C)/C(=C/c2ccc([S+](C)[O-])cc2)c2ccc(F)cc21 (stereo not shown) [PS, phosphosulindac]?
A: VEGF-A, % inhibition (VEGF-A; A2780): 64%; VEGF-A, % inhibition (VEGF-A; A2780ADR): 77%; VEGF-A, % inhibition (VEGF-A; A2780cis): 65%; VEGF-A, % inhibition (VEGF-A; OVCAR-3): 100%; VEGF-A, % inhibition (VEGF-A; SKOV-3): 96%; activation by phosphorylation of JNK and Erk1/2 (JNK and Erk1/2): profoundly suppressed; reduction of the number of VEGF positive cells (VEGF): 73%; IC50 (MMP-1 (collagenase I)): < 0.1 µM; NF-κB activation in the ILG (NF-κB [1]): suppressed; IL-8 in the ILG (IL-8 [2]; [5]): 4.9 ± 1.7 pg/mg protein; suppression of IL-8 levels in the ILG (IL-8 [2]; [6]): 64%; IL-8 reduction (IL-8 [3]; TNF-α-stimulated, PS 1×IC50, media at 24 h): 92%; IL-8 reduction (IL-8 [3]; unstimulated levels, PS 1×IC50): 62%; IL-1β in the ILG (IL-1β; [5]): 8.4 ± 1.2 pg/mg protein; suppression of IL-1β levels in the ILG (IL-1β; [6]): 61%; MMP-9 levels suppression compared to vehicle (MMP-9; lacrimal glands of rabbits with DED, PS eye drops): 27%; MMP-9 levels (MMP-9; lacrimal glands of rabbits with DED, PS eye drops, mean±SEM): 1.66±0.20 ng/mg protein; MMP-9 levels in the ILG and the aqueous humor (MMP-9; rabbits with DED treated with PS for 1 week): back to normal; activation of NF-κB (EMSA) (NF-κB [4]): significantly suppressed
